From US20220000971A1, “METHODS AND COMPOUNDS FOR TARGETING SORTILIN RECEPTORS AND INHIBITING VASCULOGENIC MIMICRY” (TRANSFERT PLUS, S.E.C., priority 2018, published 2022)
Entries after “also recorded” stand apart in the source; their conditions may differ. Where a SMILES comes first, the peptide text is derived from it. Where no end group is shown, it is not given here. [ ]: non-standard residue; d: D form. The star is where a group is joined. X2 = COc1cccc2c1C(=O)c1c(O)c3c(c(O)c1C2=O)C[C@@](O)(C(=O)COC(=O)CC(C)(C)CC(=O)*)C[C@@H]3O[C@H]1C[C@H](N)[C@H](O)[C@H](C)O1; Nle = CCCC[C@H](N)C(=O)O

Key:
[1] = tested on: SK-Hep-1 hepatocellular carcinoma cells; conditions: Curcumin 3-30 μM, dose-dependent; cited from earlier work
[2] = tested on: ES-2 ovarian cancer cells; test: In vitro vasculogenic mimicry, Matrigel tube formation assay (ES-2); assay type: cell-based, human; conditions: for inhibition of 3D-tubular structures (vasculogenic mimicry): ES-2 seeded on Matrigel, increasing concentrations; for effect on vasculogenic mimicry inhibition caused by KBB106: competitor added to KBB106
MDA-MB-231 cells [3] = test: Real-time cell migration, xCELLigence (MDA-MB-231); assay type: cell-based
Description: (§1) In vitro vasculogenic mimicry of cancer cells was assessed using a Matrigel tube formation assay. In brief, each well of a 96-well plate was pre-coated with Matrigel. ES-2 ovarian cancer or MDA-MB-231 TNBC cell suspensions were seeded on top of Matrigel. 3D-tubular structures were analyzed and quantified using Wimasis Analysis software. Real-time cell migration was evaluated using the ×CELLigence system. Sortilin gene silencing was performed with specific siRNA. Effects of Doxorubicin-KA-peptide conjugate (DoxKA) KBA-106 represented by formula Acetyl-GVRAK(doxorubicin)AGVRN(Nle)FK(doxorubicin)SESY (Formula (XXVIII)) and Docetaxel-KA-peptide conjugate (DoceKA) represented by formula Acetyl-GVRAK(docetaxel)AGVRN(Nle)FK(docetaxel)SESY (Formula (XXIII)) targeting Sortilin on vasculogenic mimicry and cell migration were determined.
MDA-MB-231 cells were used as a TNBC cell model for in vitro and in vivo xenograft (CD1 nude mice) assays. Cell migration was assessed using the ×CELLigence real-time system, whereas MTT assay was used for cell proliferation analysis. Apoptosis biomarkers expression was assessed by immunoblotting.

[4] = tested on: ES-2 ovarian cancer cells; test: Real-time cell migration, xCELLigence (ES-2); assay type: cell-based, human
Description: as §1

[5] = tested on: ES-2 ovarian cancer cell line; test: Intracellular delivery (uptake) of DoxKA, ES-2; assay type: cell-based, human; conditions: Sortilin silencing or ligand competition
Description: (§2) As a proof-of-concept, Doxorubicin was conjugated to a Sortilin binding peptide (KA-peptide). In vitro, intracellular delivery of the Doxorubicin-KA-peptide conjugate (DoxKA) KBB-106 represented by formula Acetyl-GVRAK(doxorubicin)AGVRN(Nle)FK(doxorubicin)SESY (Formula (XXVIII)) was assessed in ES-2 and SKOV-3 ovarian cancer cell line models using flow cytometry and fluorescent microscopy. Sortilin gene silencing was performed with specific siRNA. DoxKA efficacy and safety were evaluated in vivo using ES-2 (CD1 nude mice) and SKOV-3 (athymic mice) subcutaneous xenograft models.

[6] = tested on: SKOV-3 ovarian cancer cell line; test: Intracellular delivery (uptake) of DoxKA, SKOV-3; assay type: cell-based; conditions: Sortilin silencing or ligand competition
Description: as §2

[7] = target: T1, P-glycoprotein (P-gp) efflux pump (Homo sapiens, UniProt P08183); test: Uptake in MDCK-MDR1 cells overexpressing P-gp; assay type: in vitro ADME; conditions: with P-gp inhibitor Cyclosporin A
T1 construct: expressed in transfected cells; host or cells: MDCK-MDR1 cells

[8] = tested on: human ovarian tumor xenografts; test: DoxKA efficacy and safety in ES-2 and SKOV-3 subcutaneous xenograft models; assay type: in vivo, mice
Description: as §2

Sortilin receptor [9] = target: T2, Sortilin receptor (Homo sapiens, UniProt Q99523); test: Cell surface binding assay with anti-Sortilin-Alexa488; conditions: antibody 1 μg/ml, 30 minutes; ES-2 cells; competitor present
T2 construct: endogenous in cells; host or cells: ES-2 human ovarian cancer cells
T2 sequence (Q99523 78-831): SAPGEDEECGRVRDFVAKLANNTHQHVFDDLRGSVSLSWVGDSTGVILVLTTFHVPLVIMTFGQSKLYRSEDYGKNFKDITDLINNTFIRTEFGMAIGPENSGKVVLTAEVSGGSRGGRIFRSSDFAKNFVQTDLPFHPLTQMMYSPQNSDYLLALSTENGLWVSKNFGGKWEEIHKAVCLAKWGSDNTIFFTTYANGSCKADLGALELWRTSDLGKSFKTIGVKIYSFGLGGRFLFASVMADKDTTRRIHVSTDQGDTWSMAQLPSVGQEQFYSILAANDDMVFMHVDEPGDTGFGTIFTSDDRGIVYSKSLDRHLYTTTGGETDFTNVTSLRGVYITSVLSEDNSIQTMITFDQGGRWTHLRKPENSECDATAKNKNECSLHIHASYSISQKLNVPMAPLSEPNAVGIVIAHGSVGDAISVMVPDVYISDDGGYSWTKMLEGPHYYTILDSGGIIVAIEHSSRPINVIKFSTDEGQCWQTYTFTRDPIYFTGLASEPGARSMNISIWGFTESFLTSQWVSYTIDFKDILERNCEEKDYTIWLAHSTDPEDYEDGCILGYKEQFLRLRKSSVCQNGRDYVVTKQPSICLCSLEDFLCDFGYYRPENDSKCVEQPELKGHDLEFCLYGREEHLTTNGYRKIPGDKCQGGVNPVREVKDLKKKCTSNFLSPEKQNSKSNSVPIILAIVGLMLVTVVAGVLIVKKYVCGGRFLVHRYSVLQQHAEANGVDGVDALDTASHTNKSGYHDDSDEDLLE
Description: Labeling of anti-Sortilin antibody was performed with the Alexa Fluor 488 protein labeling kit from Invitrogen according to manufacturer's instructions.

MDA-MB-231 cells [10] = test: Cell death / apoptosis (Annexin V-FITC/PI); assay type: cell-based; conditions: SORT1 ligand competition
Description: MDA-MB-231 cells treated for 5 hours with control (vehicle) or with increasing concentrations of Docetaxel or DoceKA. Cells were then harvested and the rate of apoptosis was determined following staining with Annexin V-FITC and propidium iodide (PI). Cells were analyzed by flow cytometry.

Sortilin receptor [11] = target: T3, Sortilin receptor (human, UniProt Q99523 78-831); test: inferred from the vasculogenic mimicry assay of ES-2 cells, excess KBP106 against KBB106
T3 construct: whole, on cells; also called SORT1
T3 sequence (looked up): T2 sequence (Q99523 78-831)

T1 sequence (P08183 whole entry): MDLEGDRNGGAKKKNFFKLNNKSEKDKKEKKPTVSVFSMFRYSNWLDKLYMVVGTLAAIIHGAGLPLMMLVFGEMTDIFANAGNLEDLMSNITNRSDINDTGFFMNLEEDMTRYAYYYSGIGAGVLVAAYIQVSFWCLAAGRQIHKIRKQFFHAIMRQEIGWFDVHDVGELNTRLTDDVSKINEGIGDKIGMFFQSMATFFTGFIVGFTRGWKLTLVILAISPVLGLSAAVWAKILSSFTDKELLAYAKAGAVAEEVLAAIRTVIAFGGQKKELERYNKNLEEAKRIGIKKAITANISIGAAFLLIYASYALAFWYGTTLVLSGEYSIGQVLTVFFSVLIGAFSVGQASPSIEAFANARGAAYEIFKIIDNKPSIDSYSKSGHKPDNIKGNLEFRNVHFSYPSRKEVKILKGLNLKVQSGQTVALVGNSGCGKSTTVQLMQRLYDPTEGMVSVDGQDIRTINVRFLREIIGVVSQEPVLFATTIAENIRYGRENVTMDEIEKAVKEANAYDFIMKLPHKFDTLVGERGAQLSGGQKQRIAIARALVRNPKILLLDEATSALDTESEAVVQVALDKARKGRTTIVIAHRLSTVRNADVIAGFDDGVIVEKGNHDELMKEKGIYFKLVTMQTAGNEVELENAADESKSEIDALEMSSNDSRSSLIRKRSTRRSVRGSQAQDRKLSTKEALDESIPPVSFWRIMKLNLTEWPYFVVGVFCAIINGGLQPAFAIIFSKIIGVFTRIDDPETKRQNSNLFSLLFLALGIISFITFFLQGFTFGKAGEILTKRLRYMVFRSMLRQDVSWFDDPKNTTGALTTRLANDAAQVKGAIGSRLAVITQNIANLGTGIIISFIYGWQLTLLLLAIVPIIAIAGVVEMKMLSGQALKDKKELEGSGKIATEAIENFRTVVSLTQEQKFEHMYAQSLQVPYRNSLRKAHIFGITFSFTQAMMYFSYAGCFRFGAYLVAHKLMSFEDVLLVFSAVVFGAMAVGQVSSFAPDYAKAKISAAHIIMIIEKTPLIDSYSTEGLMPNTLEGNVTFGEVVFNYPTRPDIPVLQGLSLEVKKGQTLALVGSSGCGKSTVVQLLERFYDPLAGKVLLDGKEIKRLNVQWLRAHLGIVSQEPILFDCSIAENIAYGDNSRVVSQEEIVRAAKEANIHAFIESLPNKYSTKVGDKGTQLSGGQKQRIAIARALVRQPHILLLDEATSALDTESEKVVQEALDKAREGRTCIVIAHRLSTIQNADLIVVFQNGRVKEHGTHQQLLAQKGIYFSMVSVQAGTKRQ

COc1cc(/C=C/C(=O)CC(=O)/C=C/c2ccc(O)c(OC)c2)ccc1O [Curcumin, diferuloylmethane]
inhibition of tube formation [1]: 18-92%

CCCC[C@H](NC(=O)[C@H](CC(N)=O)NC(=O)[C@H](CCCNC(=N)N)NC(=O)[C@@H](NC(=O)CNC(=O)[C@H](C)NC(=O)[C@H](CCCCNC(=O)CC(C)(C)CC(=O)OCC(=O)[C@]1(O)Cc2c(O)c3c(c(O)c2[C@@H](O[C@H]2C[C@H](N)[C@H](O)[C@H](C)O2)C1)C(=O)c1c(OC)cccc1C3=O)NC(=O)[C@H](C)NC(=O)[C@H](CCCNC(=N)N)NC(=O)[C@@H](NC(=O)CNC(C)=O)C(C)C)C(C)C)C(=O)N[C@@H](Cc1ccccc1)C(=O)N[C@@H](CCCCNC(=O)CC(C)(C)CC(=O)OCC(=O)[C@]1(O)Cc2c(O)c3c(c(O)c2[C@@H](O[C@H]2C[C@H](N)[C@H](O)[C@H](C)O2)C1)C(=O)c1c(OC)cccc1C3=O)C(=O)N[C@@H](CO)C(=O)N[C@@H](CCC(=O)O)C(=O)N[C@@H](CO)C(=O)N[C@@H](Cc1ccc(O)cc1)C(=O)O [DoxKA, Acetyl-GVRAK(doxorubicin)AGVRN(Nle)FK(doxorubicin)SESY] (Ac-GVRAK(X2)AGVRN[Nle]FK(X2)SESY-OH)
concentration at which total number of loops and total tube length are inhibited ([2]; ES-2 on Matrigel): inhibited at low nM concentrations
vasculogenic mimicry inhibition compared to unconjugated drug ([2]; ES-2 on Matrigel, 12 hrs, equivalent concentration of free drug (Docetaxel 600 pM)): stronger inhibition of vasculogenic mimicry than unconjugated free drugs
inhibition of 3D-tubular structures (vasculogenic mimicry) [2]: strongly inhibited; also recorded: inhibited
inhibition of 3D-tubular structures (vasculogenic mimicry) ([2]; listed as KBB106): vascukogenic mimicry inhibition
IC50 values for vasculogenic mimicry inhibition ([2]; Example 2, ovarian cancer and TNBC cells): low nM to pM
cell migration (MDA-MB-231 cells [3]): inhibited
cell migration [4]: inhibited
uptake [5]: reduced when Sortilin expression was specifically silenced or upon competition with the Sortilin ligands Neurotensin and Progranulin
uptake [6]: reduced when Sortilin expression was specifically silenced or upon competition with the Sortilin ligands Neurotensin and Progranulin
uptake in P-gp overexpressing cells [7]: unaffected by the P-gp inhibitor Cyclosporin A
inhibition of tumor xenografts growth compared to unconjugated Doxorubicin ([8]; equivalent dose): more potent inhibition
tolerability compared to unconjugated Doxorubicin ([8]; equivalent dose): better tolerated (absence of leukopenia and neutropenia)
accumulation in healthy tissues compared to Doxorubicin ([8]; in vivo, heart and ovary): decreased accumulation in healthy tissues such as heart and ovary

Acetyl-GVRAKAGVRN(Nle)FKSESY (Ac-GVRAKAGVRN[Nle]FKSESY) [KBP106]
effect on vasculogenic mimicry inhibition caused by KBB106 ([2]; ES-2): prevents vascukogenic mimicry inhibition by KBB106
effect of peptide alone on vasculogenic mimicry ([2]; up to 50 μM, ES-2, 24 hours): no significant effect
effect on binding of anti-Sortilin-Alexa488 at the cell surface (Sortilin receptor [9]): strongly reduced the binding

Acetyl-GVRAKAGVRN(Nle)FKSESYC(aldoxorubicin) [AldoxKA]
inhibition of 3D-tubular structures (vasculogenic mimicry) [2]: inhibited

Acetyl-YKSLRRKAPRWDAPLRDPALRQLL (Ac-YKSLRRKAPRWDAPLRDPALRQLL) [KBP201]
effect on binding of anti-Sortilin-Alexa488 at the cell surface (Sortilin receptor [9]): strongly reduced the binding

progranulin: Sortilin ligand [reference compound]
effect of Sortilin ligand alone on vasculogenic mimicry ([2]; ES-2, 12 hours): do not effect vasculogenic mimicry
effect on vasculogenic mimicry inhibition caused by KBB106 ([2]; ES-2): reverses vasculogenic mimicry inhibition
effect on binding of anti-Sortilin-Alexa488 at the cell surface (Sortilin receptor [9]): inhibited
effect on apoptotic and anti-migratory effects of DoceKA (MDA-MB-231 cells [10]): reversed

Ac-GVRAKAGVRN[Nle]FKSESY (also called Katana peptide; KA-peptide) [KBP-106: Acetyl-GVRAKAGVRN(Nle)FKSESY]
binding result (Sortilin receptor [11]): binds
